Experimental findings from the METLIN SMRT retention time set (Domingo-Almenara et al. 2019) are described below.

The series in a line: gradient 5% acetonitrile 3 min, to 50% in 2 min, to 85% in 15 min, held 3 min, 100 µL/min. Conditions: column: Zorbax Extend-C18 2.1 x 50 mm; eluents: water / acetonitrile, 0.1% formic acid. The procedure, abridged: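 Each retention time is based on an adduct peak selected computationally and verified by manual inspection. Measurements used HPLC–quadrupole time-of-flight mass spectrometry in positive and negative ionization mode on mixtures of ~100 pure standards. Chromatography ran on a Zorbax Extend-C18 column (2.1 × 50 mm, 1.8 μm) at 100 μL/min with water and acetonitrile, each containing 0.1% formic acid, and dead and dwell volumes of 40 μL and 900 μL.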
`CCOc1ccc(-c2cc3c(=O)n(Cc4nc(-c5ccc(OC(C)C)cc5)no4)ncn3n2)cc1` returned an RP-LC retention time of 1260 s.

`COc1ccc(Cl)cc1NS(=O)(=O)c1cc(-c2cc(C(F)(F)F)on2)sc1C` registered an RP-LC retention time of 1220 s.

As to `COC(=O)c1cccc(NC(=O)c2sc3ncccc3c2-n2cccc2)c1`, the RP-LC retention time stood at 1040 s.

The compound `COc1cc(OC)c2c(=O)cc(-c3cccnc3)oc2c1` showed an RP-LC retention time of 733 s.

As for `CC(C)Cn1c(=O)c(N2CCN(C(=O)c3ccco3)CC2)nc2ccncc21`, the RP-LC retention time worked out at 555 s.

In turn, `Cc1cc2ccccc2n1-c1ccc(C(N)=O)s1` returned an RP-LC retention time of 842 s.

In turn, `COC(=O)c1ccc(NC(=O)COc2cc(C)nc(N3CCCC3)n2)cc1` showed an RP-LC retention time of 638 s.

Turning to `O=C(CN1C(=O)c2ccccc2C1=O)NCC1CCS(=O)(=O)C1` (stereo unspecified), the RP-LC retention time was 586 s.

In the case of `CN(C)C(=O)/N=N/C(=O)N(C)C`, the RP-LC retention time came out at 597 s.

In turn, `CCN(CC)CCNC(=O)C1(O)c2ccccc2NC(=O)N1c1ccc(C)c(C)c1` (stereo unspecified) displayed an RP-LC retention time of 571 s.

`CCOC(=O)C1=C(CNc2ccc(C(F)(F)F)cc2)NC(=O)NC1c1ccc2c(c1)OCO2` (stereo unspecified) registered an RP-LC retention time of 966 s.

For the compound `COC(=O)Nc1ccc2c(c1)C(=O)N(C)CCO2`, the RP-LC retention time stood at 587 s.

In turn, `COCCCNC(=O)c1nccnc1NC(=O)c1ccc(C)cc1` showed an RP-LC retention time of 791 s.

`Cn1c(C(=O)NC2CCCCC2)cc2c(-c3cccs3)nn(-c3ccccc3)c21`: the RP-LC retention time was determined as 1210 s.

Take `COc1cccc(CNC(=O)N2CCC(N3CCN(Cc4cccc(F)c4)C(=O)C3=O)CC2)c1`: the RP-LC retention time was 688 s.

Take `COc1ccc(OC)c(CNC(=O)C2CCCN(c3nccnc3Oc3ccccc3)C2)c1` (stereo unspecified): the RP-LC retention time is 957 s.

As to `CC(=O)Nc1onc(C)c1-c1ccc(C)c(S(=O)(=O)NCc2ccc(N(C)C)cc2)c1`, the RP-LC retention time came to 1170 s.

The compound `Nc1n[nH]c(-c2ccc(Cl)cc2)n1` displayed an RP-LC retention time of 605 s.

As to `CC(C)S(=O)(=O)c1ccc(CC(=O)N2CCC(c3nnc(-c4ccco4)o3)CC2)cc1`, the RP-LC retention time is 669 s.

On to `O=S(=O)(c1cc(-c2ccno2)cs1)N(Cc1cccs1)C1CCCCC1`, for which the RP-LC retention time stood at 1190 s.

`COc1ccc(CNC(=O)NC2CCN(c3ccc(F)c(C)c3)C2=O)cc1` (stereo unspecified) showed an RP-LC retention time of 783 s.

`CC(C)NC(=O)c1ccc(OCC2CCCN2C(=O)c2ccc(N(C)C)cc2)cc1` (stereo unspecified): the RP-LC retention time is 799 s.

In turn, `O=C(Nc1cnc(N2CCCCCC2)nc1)c1cnccn1` yielded an RP-LC retention time of 771 s.

The compound `CCOc1ccc(CNS(=O)(=O)c2cc(-c3c(C)noc3NC(C)=O)ccc2OC)cc1` gave an RP-LC retention time of 785 s.

As for `O=c1c2cc(-c3ccccc3Cl)nn2cnn1Cc1nc(-c2ccccc2)no1`, the RP-LC retention time turned out to be 1110 s.

For the compound `Cc1ccc(NC(=O)Cn2cccc2-c2nnc(C3CCC3)o2)cc1Cl`, the RP-LC retention time was 1010 s.

`CCCN1C(=O)c2[nH]nc(-c3ccc(OC)cc3)c2C1c1cccnc1` (stereo unspecified) gave an RP-LC retention time of 656 s.

`O=C(NCc1ccc(F)cc1)Nc1c(-c2ccccc2)nc2ccccn12` had an RP-LC retention time of 639 s.

With `Cc1cc(SCC(=O)c2ccc3c(c2)OCO3)nc(C(C)C)n1`, the RP-LC retention time was 764 s.

Compound `CCNC(=O)C1CCCN(c2nc3ncn(CC(=O)Nc4ccc(Cl)cc4)c(=O)c3s2)C1` (stereo unspecified) returned an RP-LC retention time of 704 s.

`Cc1ccc(F)c(NC(=O)c2nc3nc(C)cc(C(F)F)n3n2)c1` had an RP-LC retention time of 846 s.

Turning to `COc1cc(CN2CCc3nc(N4CCC(C)CC4)ncc3C2)ccc1OC(C)C`, the RP-LC retention time was 764 s.

`CC(C)CCN1CCC(N2CCN(S(=O)(=O)c3ccc(F)cc3F)CC2)C1=O` (stereo unspecified) gave an RP-LC retention time of 690 s.

Compound `O=C(COc1ccc(-c2nnc3n2CCCC3)cc1)Nc1ccc(Cl)cc1` gave an RP-LC retention time of 757 s.

Compound `COc1ccc(C2=C(C)C(N3CCC(C(=O)N(C)Cc4ccco4)CC3)=NS2(=O)=O)cc1` displayed an RP-LC retention time of 815 s.

Regarding `Cc1ccc(-n2c(=O)c3c(cc(C)n3C)n(CC(=O)Nc3cc(C)cc(C)c3)c2=O)cc1`, the RP-LC retention time was found to be 844 s.

`COc1ccc(-c2noc(C3CC(=O)N(c4ccc(F)cc4)C3)n2)c(OC)c1` (stereo unspecified): the RP-LC retention time was determined as 850 s.

In the case of `CCCn1c(CCNC(=O)c2ccc(Cl)cc2)nc2cccnc21`, the RP-LC retention time turned out to be 722 s.

Regarding `O=C(Nc1ccc(Br)cc1F)C1CCCN(c2cc(-n3cccn3)ncn2)C1` (stereo unspecified), the RP-LC retention time came out at 967 s.

The compound `O=C(c1ccc(Cn2cncn2)cc1)N1CCN(c2ccccc2)CC1` displayed an RP-LC retention time of 707 s.

On to `CN(CC1CCOC1)C(=O)c1cccc(Cl)c1` (stereo unspecified), for which the RP-LC retention time was 672 s.

On to `COc1ccc(CCNC(=O)c2cc(C3CC3)[nH]n2)cc1OC`, for which the RP-LC retention time was determined as 690 s.

In the case of `COc1ccc(N2CC(c3noc(-c4ccc(Cl)cc4OC)n3)CC2=O)cc1` (stereo unspecified), the RP-LC retention time was found to be 971 s.

`CCc1nc(-c2ccc3c(c2)CCN3C(=O)Cc2cc(OC)cc(OC)c2)no1` displayed an RP-LC retention time of 996 s.

On to `CCCCN(C)c1ncc(C(=O)NCc2ccccc2)c(N)n1`, for which the RP-LC retention time was determined as 690 s.

Take `CC(C)Cc1ccc([C@H](C)C(=O)O)cc1`: the RP-LC retention time was 1040 s.

The compound `COC(=O)c1ccc2nc(NC(=O)C3CCCCC3)sc2c1` displayed an RP-LC retention time of 932 s.

As for `O=C(Nc1ccc(N2CCOCC2)cc1)c1ccc2nc(-c3ccccc3)cn2c1`, the RP-LC retention time worked out at 646 s.

Regarding `COc1ccccc1-c1noc(C2CCCN2C(=O)c2ccc(C#N)cc2F)n1` (stereo unspecified), the RP-LC retention time was determined as 839 s.

Compound `CCCn1c(=O)sc2cc(S(=O)(=O)N3CCC(C(=O)NCc4cccs4)CC3)ccc21` registered an RP-LC retention time of 880 s.

`COc1cc(NC(=O)COc2nc(C)nc3ccccc23)cc(OC)c1` yielded an RP-LC retention time of 735 s.

Regarding `CCc1cc(N2CCN(C(=O)c3ccc(C#N)cc3)CC2)nc2nncn12`, the RP-LC retention time was 581 s.

For `CCOC(=O)c1oc2ccccc2c1NC(=O)c1ccc([N+](=O)[O-])s1`, the RP-LC retention time is 1040 s.

`Cc1cc(C)n(-c2ccc(C(=O)NCc3nc4ccccc4[nH]3)nn2)n1`: the RP-LC retention time was 564 s.

The compound `CCOc1nc2ccccc2nc1N1CCCC(C(=O)Nc2ccc(F)cc2F)C1` (stereo unspecified) displayed an RP-LC retention time of 1220 s.

Take `CN(C)c1cc(N2CCCC(NC(=O)Cc3ccccc3)C2)ncn1` (stereo unspecified): the RP-LC retention time was found to be 795 s.

In turn, `CN(C)C1(CC2CC2)CCN(C(=O)C2CC2)CC1` yielded an RP-LC retention time of 558 s.

In the case of `CCc1noc(-c2ccc(-n3ncc(C(=O)NC4CCCCC4)c3C)nc2)n1`, the RP-LC retention time is 1020 s.

Turning to `CCC(=O)N1CCc2cc(N3CC(C(=O)Nc4cccc(SC)c4)CC3=O)ccc21` (stereo unspecified), the RP-LC retention time was 789 s.

On to `CC(C)c1noc(-c2cccnc2N2CCCN(Cc3ccc(F)cc3)CC2)n1`, for which the RP-LC retention time is 712 s.

For the compound `CCOc1ccc(-c2cc3c(=O)n(Cc4nc(-c5cccc(OCC)c5)no4)ncn3n2)cc1`, the RP-LC retention time was determined as 1220 s.

Compound `CCn1ccc2cc(S(=O)(=O)N3CCCC(C(=O)NCCCN4CCOCC4)C3)ccc21` (stereo unspecified) registered an RP-LC retention time of 648 s.

With `CCNc1ncnc2sc3c(c12)CCN(C(=O)COC)C3`, the RP-LC retention time came out at 601 s.

In turn, `Cc1nc2cc(-c3noc(C(C)NC(=O)c4ccccc4)n3)ccc2n(C2CCCC2)c1=O` (stereo unspecified) displayed an RP-LC retention time of 999 s.

Compound `Cc1cc(=O)n(CC(=O)Nc2cccc(F)c2)c(N)n1` registered an RP-LC retention time of 603 s.

Compound `O=C(c1cn2ccnc(-c3ccccc3)c2n1)N1CCN(C2CCCCC2)CC1` showed an RP-LC retention time of 637 s.

In the case of `CC(C)CN1Cc2ccccc2-n2ccnc2C12CCN(C(=O)c1ccoc1)CC2`, the RP-LC retention time was 665 s.

In the case of `CC(=O)NCCc1nc2ccccc2n1CCCOc1cccc2ccccc12`, the RP-LC retention time is 611 s.

`COC(=O)C1=CN(c2ccc(F)cc2C)c2cc(F)ccc2S1(=O)=O` had an RP-LC retention time of 895 s.

Turning to `Cc1ccc(C(=O)Nc2ccc(N3CCN(C4CCCC4)C3=O)nc2)cc1N1CCCC1=O`, the RP-LC retention time is 686 s.

Compound `CCOC(=O)c1cnc2nc(C)ccc2c1Nc1ccc(S(N)(=O)=O)cc1` gave an RP-LC retention time of 589 s.

With `Cc1cc(=O)n(CC(=O)Nc2ccccc2C)c(N2CCCC2)n1`, the RP-LC retention time came out at 620 s.

`CCN(Cc1ccccc1)C(=O)C1CCN(c2ncnc3c2oc2ccccc23)CC1` displayed an RP-LC retention time of 871 s.

In the case of `Cc1cc(C)n(-c2ccnc(N3CCC(C(=O)NCCC(C)C)CC3)n2)n1`, the RP-LC retention time was found to be 836 s.

Turning to `CCn1ncn2cc(S(=O)(=O)Nc3ccc(F)c(F)c3)cc2c1=O`, the RP-LC retention time is 884 s.

For the compound `Cc1ccccc1CN1C(=O)N(c2cccc(F)c2)c2ncccc2S1(=O)=O`, the RP-LC retention time amounted to 1090 s.

In turn, `Cc1ccc(N2CCN(S(=O)(=O)c3cc4n(c3)CCCNC4=O)CC2)cc1` had an RP-LC retention time of 743 s.

In the case of `Cc1ccc(Nc2c(-c3ccccc3)nc3cccc(C)n23)cc1`, the RP-LC retention time came to 757 s.

For `O=C(NCCCN1CCCCC1)c1ccc2c(c1)nc1n2CCN(C2CCCCC2)C1=O`, the RP-LC retention time was determined as 621 s.

The compound `COc1ccccc1CCNC(=O)CSC1CCc2ccccc2NC1=O` (stereo unspecified) returned an RP-LC retention time of 784 s.

As for `COc1ccc(S(=O)(=O)N2CCCC(C(=O)NCc3ccccn3)C2)cc1OC` (stereo unspecified), the RP-LC retention time came to 604 s.
